Experimental findings from patent US4734406A, “3-pyridylmethylnaphthyl derivatives and composition containing them useful to inhibit thromboxane synthetase” (priority 1985, dated 1988) are described below.

Assay [1] deals with TXA2 release in platelet-rich human plasma. In words: Thrombin-induced TXA2 release in platelet-rich human plasma in vitro (TXB2 radioimmunoassay). The settings on record: 0.5 h, relative TXB2 content, without test substance = 100%, 0.5 U thrombin + 7.2×10^-7 M arachidonic acid; for activity at 1 µM: 10^-6 mol/l test substance; for activity at 0.1 µM: 10^-7 mol/l test substance. It counts as cell-based. How it is done: 2. Thrombin-induced TXA2 release in platelet-rich human plasma in vitro Blood is taken, by careful cannulation of the antecubital vein, from apparently healthy male and female volunteers, who have taken no medicaments in the preceding 10-day period, and is immediately stabilized with sodium citrate (ad. 0.38%). Platelet-rich plasma (PRP) is obtained in the supernatant by centrifugation at 140×g for 15 minutes, and the platelet content of this should be in the range 2.5-3.5×10^8 /ml. […] This is stopped in an ice bath and, after addition of tracer and TXB2 -specific antibodies (NEN, Dreieich), the TXB2 content is determined radioimmunologically (TXA2 is unstable under the experimental conditions and thus cannot be measured. The stable hydrolysis product TXB2 is measured in its place). The measured variable is the relative TXB2 content in the platelet incubations from two or three different donors with and without (=100%) the test substance.

A further assay relates to Laser-induced thrombosis. Briefly: Inhibition of Laser-induced thrombosis. The note with it: 10 mg/kg p.o., one hour before start; mesentery arterioles, rat. The assay is classed as in vivo, Sprague-Dawley rats. As to the method:
3. Inhibition of Laser-induced thrombosis
The investigations of the compounds according to the invention in the model of Laser-induced thrombosis are carried out on male or female Sprague-Dawley rats with a body weight of about 200 g. The animals to be investigated are premedicated s.c. with 0.1 mg of atropine sulfate in solution, and anesthetized i.p. with 100 mg of ketamine hydrochloride and 4 mg of xylazine per kg of body weight. Arterioles from the mesentry, with a diameter of 12-25 μm, are used for the investigation. During the measurement, the exposed mesentry is hyperfused with warmed physiological NaCl (37° C.) or is covered with degassed liquid paraffin. The beam of a 4 W argon laser (supplied by Spectra Physics, Darmstadt, FRG) is introduced coaxially into the inverted ray path of a microscope (ICM 405, LD-Epilan 40/0.60; supplied by Zeiss, Oberkochen, FRG) by means of a ray adaptation and adjustment system (supplied by BIG, Munich, FRG). […]
The number of shots needed to induce a defined thrombus was counted. The frequency of the laser flashes was one lesion every 2 minutes, all the thrombi with a minimum size of 1/4 of the vessel radius which were formed during the observation period being counted and measured. The results of the experiment were statistically analyzed using the x^2 test (L. Cavalli-Sforza, Biometrie, Stuttgart, 1969, pages 49 et seq.).

The next assay concerns human platelets. Briefly: Inhibition of the arachidonic acid-induced aggregation of human platelets in vitro. It counts as cell-based. The note with it: Platelet, PRP, 10 min preincubation at 37° C., 2×10^-4 M arachidonic acid. As to the method:
1. Inhibition of the arachidonic acid-induced aggregation of human platelets in vitro.
The platelet aggregation is followed optically by measurement of the transmission of light in a Born aggregometer. The total volume of the test mix is 0.25 ml. The preincubation time at 37° C. with the test product is 10 min, and aggregation is then induced with 2×10^-4 M arachidonic acid. The test product is, as a rule, tested in five different concentrations in the PRP from three different donors. Dose-effect curves are drawn from the maximal aggregation amplitudes in each case, and the IC50 values are determined graphically. […] The measurements are carried out in the period 1-6 hours after blood sampling.

Counter-ions that a name gives are not always drawn.

With `Cc1ccncc1C(O)c1ccc2cc(C(=O)O)ccc2c1.Cl` (stereo not shown) [Example 8, 6-[1-Hydroxy-1-(4-methyl-3-pyridyl)methyl]-2-naphthoic acid hydrochloride], in assay [1], the activity at 1 µM was 13% and the activity at 0.1 µM was 88%. Also, in the assay with Laser-induced thrombosis, the “Number of laser shots to form a thrombus (compared with control)” value is on record as “+56%”. Further, 6.3 µM corresponded to half-maximal inhibition in the assay with human platelets (IC50).
For the molecule `O=C(O)c1ccc2cc(C(O)c3cccnc3)ccc2c1` (stereo not shown) [Example 9, hydrochloride of 6-[1-hydroxy-1-(3-pyridyl)methyl]-2-naphthoic acid], in assay [1], the activity at 1 µM was 21% and the activity at 0.1 µM came to 64%. For the same molecule, the half-maximal inhibitory concentration (IC50) (usually the point on the concentration scale where inhibition reaches its midpoint) with human platelets came out at 1.7 µM.
